Results: paper PMC6214853, “Cytotoxic, tubulin-interfering and proapoptotic activities of 4′-methylthio-trans-stilbene derivatives, analogues of trans-resveratrol” (Cytotechnology, 2018)
Several values for one entry are separate records, joined by “and”; a condition that tells them apart may be missing. Identical values can stand only once.

Key:
purified porcine tubulin = molecular target: T1, purified porcine tubulin (Sus scrofa, UniProt P02554); test: Tubulin polymerization assay in vitro; assay type: biochemical; details: absorbance at steady state
T1 construct: purified porcine tubulin purchased from Cytoskeleton Inc; purchased Cytoskeleton Inc. (Denver, CO, USA)
Protocol: Tubulin polymerization was assessed with the use of purified porcine tubulin purchased from Cytoskeleton Inc. (Denver, CO, USA) in accordance with a protocol recommended by the manufacturer. Tubulin was dissolved in a buffer containing: 80 mM PIPES pH 6.9, 2 mM MgCl2, 0.5 mM EGTA and 1 mM GTP, at a final concentration of 3 mg/mL and placed in a 96-well plate (0.3 mg per well). The polymerization reaction was started by increasing temperature from 4 to 37 °C upon transfer of the reaction mixture to a pre-warmed plate. The assembly of microtubules was monitored spectrophotometrically by measuring absorbance at 350 nm for 60 min, at a temperature of 37 °C. Paclitaxel was used as stabilizing positive control.

A431 cells [1] = test: MTT cell viability assay, A431; assay type: cell-based; details: Homo sapiens, A-431, A431, 48 h treatment
Protocol: (§1) Spontaneously immortalized human keratinocyte HaCaT cells were purchased from Cell Lines Service (CLS, Eppelheim, Germany). Human epidermoid carcinoma A431 cells were obtained from Deutsche Sammlung von Mikroorganismen und Zellkulturen (DSMZ, Braunschweig, Germany). MCF7 (ECACC 86012803) and MCF12A (ECACC10782) cells were purchased from the European Collection of Cell Cultures (Salisbury, Wiltshire, UK). MCF12A cells were cultured in 95% 1:1 mixture of DMEM and Ham’s F12 medium, 20 ng/mL human epidermal growth factor, 500 ng/mL hydrocortisone and 5% horse serum. The other cell lines were cultured in Dulbecco’s modified Eagle’s medium (DMEM) supplemented with 10% fetal bovine serum and 1% (v/v) antibiotics solution. Cells were incubated at 37 °C in an atmosphere consisting of 95% air and 5% CO2 in a humidified incubator until they reached 70% confluency. 1 × 10^6 cells were seeded in 40 mm ø culture dishes. After 24 h of preincubation in DMEM containing 5% of FBS, the cells were treated with resveratrol or its analogs, and the incubation was continued for a subsequent 24 h to assess apoptosis or cell cycle distribution. Then, the cells were harvested. Control cells were treated with DMSO, at a concentration of less than 0.1%.
(§2) The effect of resveratrol and 4′-methylthiostilbenes on cell viability was assessed with MTT assay according to the standard protocol described earlier (Zielińska-Przyjemska et al. [2015]). Briefly, the cells were seeded in 96-well plates at a density of 1 × 10^4 cells/well in 100 μL of growth medium. They were allowed to attach overnight and either resveratrol or the appropriate analog was then added to the culture medium at various concentrations (0–200 μM) for 48 h at 37 °C. The cells were subsequently incubated with MTT (0.5 mg/mL) solution for another 4 h. The water insoluble formazan crystals were solubilized in acidic isopropanol before the measurement of absorbance using a microplate reader (TECAN Infinite M200, TK Biotech, Warsaw, Poland) at 540 and 690 nm. All of the experiments were repeated three times, with at least three measurements per assay.

MCF7 cells [2] = test: MTT cell viability assay, MCF7; assay type: cell-based, human; details: MCF7, 48 h treatment
Protocol: as §1, §2

HaCaT cells [3] = test: MTT cell viability assay, HaCaT; assay type: cell-based; details: Homo sapiens, 48 h treatment
Protocol: as §1, §2

[4] = test system: MCF12A, MCF7, HaCaT and A431 cell lines; test: Annexin-V/propidium iodide assay; assay type: cell-based, human; details: 24 h incubation, all four cell lines
Protocol: as §1
Apoptosis and necrosis were detected using Annexin-V-FLUOS Staining Kit assay (Roche Diagnostics GmbH, Mannheim, Germany), according to the manufacturer’s instruction. After have been treated with test compounds for 24 h, the cells were transferred (1 × 10^6 cells in 100 µL of the solution) into 5 mL culture tubes followed by the addition of 2 µL of Annexin-V-Fluos and 2 µL PI. Camptothecin at a final concentration of 50 nM was used as a positive control. Samples were gently mixed and incubated for 15 min at RT (25 °C) in the dark. Fluorescence of cell surface (AV) and DNA-bound PI markers was analyzed with flow cytometry (Becton–Dickinson, San Jose, CA, USA) at 488 nm excitation wavelength, emission 518 and 617 nm for AV and PI, respectively.

MCF12A cells [5] = test: MTT cell viability assay, MCF12A; assay type: cell-based; details: Homo sapiens, MCF-12A, 48 h treatment
Protocol: as §1, §2

A431 cells [6] = test: Flow cytometry cell cycle analysis, A431; assay type: cell-based, human; details: A431, 24 h incubation, PI flow cytometry
Protocol: as §1, with “Control cells were treated with DMSO, at a concentration of less than 0.1%.” left out
(§3) The cells harvested after a 24 h incubation with the test compounds were washed with 1 mL of PBS and fixed with 70% ethanol. […] The stained cells were analyzed by FACSCanto Flow Cytometer (Becton–Dickinson). […]

[7] = test system: MCF12A, MCF7, HaCaT and A431 cell lines; test: TUNEL assay; assay type: cell-based, human; details: 24 h incubation, versus control
Protocol: as §1
TUNEL assay was applied to detect apoptotic cells using In Situ Cell Death Detection Kit (Roche Diagnostics, Indianapolis, IN, USA). Briefly, after incubation with the test compounds for 24 h, the cells were detached with a 0.5% trypsin–EDTA solution and collected. Cell suspensions were fixed with 4% paraformaldehyde and permeabilized with 0.1% Triton X-100 in 0.1% sodium citrate. After the TUNEL reaction mixture was added, cells were incubated for 1 h at 37 °C in a humidified chamber and samples were analyzed by FACSCanto Flow Cytometer (Becton–Dickinson). Camptothecin at a final concentration of 50 nM was used as a positive control.

HaCaT cells [8] = test: Flow cytometry cell cycle analysis, HaCaT; assay type: cell-based, human; details: 24 h incubation, PI flow cytometry
Protocol: as §1, with “Control cells were treated with DMSO, at a concentration of less than 0.1%.” left out
as §3

MCF12A cells [9] = test: Flow cytometry cell cycle analysis, MCF12A; assay type: cell-based, human; details: 24 h incubation, PI flow cytometry
Protocol: as §1
(§4) The cells harvested after a 24 h incubation with the test compounds were washed with 1 mL of PBS and fixed with 70% ethanol. The ethanol was added dropwise to the cell pellet while vortexing to ensure fixation of all cells and minimizing clumping. After a 30 min incubation, the cells were washed twice in PBS, and 250 µL of a solution containing 50 µg/mL PI, 100 µg/mL RNase A (Sigma, St. Louis, MO, USA) in PBS was added to the pellet and incubated for 30 min at 37 °C in the dark. The stained cells were analyzed by FACSCanto Flow Cytometer (Becton–Dickinson). Camptothecin at a final concentration of 50 nM was used as a positive control. Data analysis and acquisition were performed using FACS Diva software (Becton–Dickinson).

MCF7 cells [10] = test: Flow cytometry cell cycle analysis, MCF7; assay type: cell-based, human; details: MCF7, 24 h incubation, PI flow cytometry
Protocol: as §1, §4

tubulin = test system: tubulin; parameters: method as in Ma and coworkers ([2008]); details: ref Ma and coworkers ([2008]), cited from earlier work
MCF7 cells [11] = test system: MCF7 cells; parameters: method as in Androutsopoulos et al. [2011]; details: 96 h exposure; ref Androutsopoulos et al. [2011]; cited from earlier work

T1 sequence (P02554 whole entry): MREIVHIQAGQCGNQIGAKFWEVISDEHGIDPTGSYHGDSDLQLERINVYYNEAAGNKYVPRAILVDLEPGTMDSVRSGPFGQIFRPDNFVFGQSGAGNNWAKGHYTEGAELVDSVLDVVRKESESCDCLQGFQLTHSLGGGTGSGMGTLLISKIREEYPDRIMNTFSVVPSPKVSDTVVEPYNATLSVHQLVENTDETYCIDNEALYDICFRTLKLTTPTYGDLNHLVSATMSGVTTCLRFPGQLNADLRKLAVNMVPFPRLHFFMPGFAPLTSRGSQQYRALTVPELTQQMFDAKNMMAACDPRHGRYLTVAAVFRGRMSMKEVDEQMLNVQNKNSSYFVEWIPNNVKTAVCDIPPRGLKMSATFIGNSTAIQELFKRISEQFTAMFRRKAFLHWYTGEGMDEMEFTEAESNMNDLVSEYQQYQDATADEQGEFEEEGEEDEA
T1 sequence (P02550 whole entry partner): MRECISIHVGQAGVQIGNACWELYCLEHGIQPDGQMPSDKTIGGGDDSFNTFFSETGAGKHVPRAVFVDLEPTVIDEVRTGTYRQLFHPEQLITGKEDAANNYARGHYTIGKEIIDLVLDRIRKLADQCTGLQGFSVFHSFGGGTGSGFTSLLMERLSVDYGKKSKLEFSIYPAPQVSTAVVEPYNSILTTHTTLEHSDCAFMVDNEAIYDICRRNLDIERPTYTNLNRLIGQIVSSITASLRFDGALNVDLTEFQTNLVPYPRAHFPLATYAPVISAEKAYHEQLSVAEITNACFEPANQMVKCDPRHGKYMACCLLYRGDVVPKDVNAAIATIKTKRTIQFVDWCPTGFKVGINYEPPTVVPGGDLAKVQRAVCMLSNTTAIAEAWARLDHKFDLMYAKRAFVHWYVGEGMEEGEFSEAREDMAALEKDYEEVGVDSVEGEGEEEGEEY

| IC50 (A431 cells [1]) [µM] | IC50 (MCF7 cells [2]; Homo sapiens, MCF7, 48 h) [µM] | Compound | Tubulin polymerization, steady state level (purified porcine tubulin; 10 µM compound) | IC50 (HaCaT cells [3]) [µM] | Apoptosis induction (Annexin-V/PI) [4] | IC50 (MCF12A cells [5]) [µM] | Number of TUNEL positive cells [7] | Cell cycle effect (MCF12A cells [9]) | Cell cycle effect (MCF7 cells [10]) | other results |
| --- | --- | --- | --- | --- | --- | --- | --- | --- | --- | --- |
|  |  | CC(=O)O[C@H]1C(=O)[C@@]2(C)[C@H]([C@H](OC(=O)c3ccccc3)[C@]3(O)C[C@H](OC(=O)[C@H](O)[C@@H](NC(=O)c4ccccc4)c4ccccc4)C(C)=C1C3(C)C)[C@]1(OC(C)=O)CO[C@@H]1C[C@@H]2O [Paclitaxel, reference compound] | 142.3 % of control and 142.3 ± 9.2 % of control |  |  |  |  |  |  |  |
| 241 ± 10 | 27.3 ± 12.4 | COc1ccccc1/C=C/c1ccc(SC)cc1 [2-Methoxy-4′-methylthio-trans-stilbene] |  | 106 ± 9.3 |  |  |  |  |  |  |
| 157 ± 3 | 10.6 ± 6.1 | COc1cccc(/C=C/c2ccc(SC)cc2)c1OC [2,3-Dimethoxy-4′-methylthio-trans-stilbene] |  | 51.8 ± 7.3 |  |  |  |  |  |  |
| 49.4 ± 3.8 | 24.6 ± 3.8 | Oc1ccc(/C=C/c2cc(O)cc(O)c2)cc1 [Resveratrol, trans-3,4′,5-trihydroxystilbene] |  | 85.2 ± 29.2 | apoptosis was evident in all the tested cell lines | 93.5 ± 12.1 | statistically significant in all the cell lines studied | blocked the cell cycle in S-phase | blocked the cell cycle in S-phase | Cell cycle effect (A431 cells [6]): blocked the cell cycle in S-phase; Cell cycle effect (HaCaT cells [8]): arrested in G0/G1-phase; Effect on tubulin polymerization (tubulin): does not influence tubulin polymerization |
|  |  | COc1ccc(/C=C/c2cc(OC)c(OC)c(OC)c2)cc1 [DMU-212, 3,4,5,4′-trans-tetramethoxystilbene] |  |  |  |  |  |  |  | Toxicity in MCF7 cells (MCF7 cells [11]): submicromolar toxicity; Effect on microtubule polymerization (tubulin; DMU-212 at 2.5 μM versus paclitaxel at 10 μM): comparable to that of paclitaxel |
| 141 ± 2.8 | 6.6 ± 3.7 | COc1cccc(/C=C/c2ccc(SC)cc2)c1 [3-Methoxy-4′-methylthio-trans-stilbene] |  | 183 ± 38.7 |  |  |  |  |  |  |
| 45.4 ± 7.2 | 4.8 ± 3.4 | COc1cc(/C=C/c2ccc(SC)cc2)cc(OC)c1 [3,5-Dimethoxy-4′-methylthio-trans-stilbene] |  | 25.4 ± 13.9 |  |  |  |  |  |  |
| 47.1 ± 9 | 10.2 ± 6.6 | COc1ccc(OC)c(/C=C/c2ccc(SC)cc2)c1 [2,5-Dimethoxy-4′-methylthio-trans-stilbene] |  | 65 ± 24.5 |  |  |  |  |  |  |
| 19.3 ± 5.5 | 2.07 | COc1cc(/C=C/c2ccc(SC)cc2)cc(OC)c1OC [3,4,5-MTS, 3,4,5-Trimethoxy-4′-methylthio-trans-stilbene] | 132.9 % of control and 132.9 ± 17.1 % of control | 10 ± 4.6 | induced apoptosis in all the cell lines | 25.7 ± 4.3 | statistically significant increase in the number of TUNEL positive cells was observed only in HaCaT and A431 | G2/M phase arrest | G2/M phase arrest | IC50 (MCF7 cells [2]): 2.1 ± 0.4 µM; Cell cycle effect (A431 cells [6]): G2/M phase arrest; Tubulin polymerization, steady state level (purified porcine tubulin; 5 µM compound): 113.4 ± 3.6 % of control |
| 22.6 ± 7.2 | 5.1 ± 1.4 | COc1cc(OC)c(OC)cc1/C=C/c1ccc(SC)cc1 [2,4,5-MTS, 2,4,5-Trimethoxy-4′-methylthio-trans-stilbene] | 123.2 % of control and 123.2 ± 4.5 % of control | 50.9 ± 13.3 | induced apoptosis in all the cell lines | 10 ± 3 | statistically significant increase in the number of TUNEL positive cells was observed only in HaCaT and A431 | G0/G1 phase arrest | G0/G1 phase arrest | Tubulin polymerization, steady state level (purified porcine tubulin; 5 µM compound): 106.3 ± 4.2 % of control |
